Assay results from patent US20250276964A1 (Novartis AG, priority 2021, published 2025).

Target: T1, WIZ (Homo sapiens, UniProt O95785+Q96SW2)
T1 construct: expressed in transfected cells
Assay: Quantification of WIZ protein levels in HiBit tag fusion protein assay (WIZ HiBit assay in 293T cells)
Format: cell-based
Conditions: for Dmax at 25 µM / remaining activity at 25 µM: HEK-293T; for Dmax at 25 µM: 100 minus Amax at 25 uM, read-out: % degradation of WIZ (100-Amax); for remaining activity at 25 µM: DMSO-normalized, curve-fitted percentage of WIZ-HiBit remaining at 25 uM, read-out: WIZ Amax; for DC50: WIZ HiBit assay in 293T cells, 10-point, 5-fold dilution, highest concentration 25 μM, about 18 hours, read-out: WIZ AC50
How it was run: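 293T cells stably carrying single-copy HiBit-WIZ (HSVTK promoter) treated ~18 h at 37 °C with 10-point, 5-fold dilutions, top 25 μM. Lytic HiBit luminescence read; Amax is DMSO-normalised, curve-fitted % WIZ-HiBit remaining at 25 uM.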

T1 sequence (O95785 whole entry): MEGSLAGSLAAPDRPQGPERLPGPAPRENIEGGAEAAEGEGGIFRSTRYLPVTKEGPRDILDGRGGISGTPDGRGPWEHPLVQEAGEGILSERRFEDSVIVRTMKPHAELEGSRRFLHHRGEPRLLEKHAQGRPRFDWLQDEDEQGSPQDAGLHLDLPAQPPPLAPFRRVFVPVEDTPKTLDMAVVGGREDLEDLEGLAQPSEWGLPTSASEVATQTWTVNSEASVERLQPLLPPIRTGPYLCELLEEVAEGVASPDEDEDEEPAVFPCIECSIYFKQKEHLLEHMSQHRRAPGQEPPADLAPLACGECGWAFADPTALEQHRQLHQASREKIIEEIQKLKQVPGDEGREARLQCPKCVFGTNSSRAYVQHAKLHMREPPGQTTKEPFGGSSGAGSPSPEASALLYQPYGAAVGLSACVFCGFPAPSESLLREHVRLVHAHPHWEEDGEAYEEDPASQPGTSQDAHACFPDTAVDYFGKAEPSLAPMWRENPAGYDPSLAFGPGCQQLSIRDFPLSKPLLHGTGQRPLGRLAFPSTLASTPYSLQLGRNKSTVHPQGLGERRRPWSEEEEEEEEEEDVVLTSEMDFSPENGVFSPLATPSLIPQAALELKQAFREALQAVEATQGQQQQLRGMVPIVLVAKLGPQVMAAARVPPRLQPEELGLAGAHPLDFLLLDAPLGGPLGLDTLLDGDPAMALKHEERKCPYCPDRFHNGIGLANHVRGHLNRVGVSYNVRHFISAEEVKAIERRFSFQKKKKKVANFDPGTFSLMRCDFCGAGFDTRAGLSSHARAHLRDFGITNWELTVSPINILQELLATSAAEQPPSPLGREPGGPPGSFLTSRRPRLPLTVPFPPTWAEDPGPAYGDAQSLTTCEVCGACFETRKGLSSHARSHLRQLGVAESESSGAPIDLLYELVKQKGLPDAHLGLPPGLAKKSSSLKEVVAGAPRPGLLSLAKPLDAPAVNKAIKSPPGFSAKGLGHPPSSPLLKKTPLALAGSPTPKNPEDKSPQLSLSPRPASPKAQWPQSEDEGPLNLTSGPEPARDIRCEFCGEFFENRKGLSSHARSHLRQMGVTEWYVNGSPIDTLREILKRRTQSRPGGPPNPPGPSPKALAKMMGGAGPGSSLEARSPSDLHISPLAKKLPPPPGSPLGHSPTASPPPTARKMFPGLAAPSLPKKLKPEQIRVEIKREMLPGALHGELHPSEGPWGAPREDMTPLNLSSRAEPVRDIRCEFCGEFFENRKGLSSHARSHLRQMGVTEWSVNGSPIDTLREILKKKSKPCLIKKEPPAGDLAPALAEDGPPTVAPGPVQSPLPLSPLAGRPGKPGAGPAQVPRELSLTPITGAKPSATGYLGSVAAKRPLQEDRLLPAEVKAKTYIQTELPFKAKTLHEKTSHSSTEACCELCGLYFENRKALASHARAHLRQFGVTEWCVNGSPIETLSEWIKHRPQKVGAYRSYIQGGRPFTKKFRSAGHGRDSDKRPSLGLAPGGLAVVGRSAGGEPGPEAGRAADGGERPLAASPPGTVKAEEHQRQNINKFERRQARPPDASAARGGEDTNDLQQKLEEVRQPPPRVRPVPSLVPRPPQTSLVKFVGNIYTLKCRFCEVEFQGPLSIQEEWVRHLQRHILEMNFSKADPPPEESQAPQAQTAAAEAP
T1 sequence (Q96SW2 whole entry): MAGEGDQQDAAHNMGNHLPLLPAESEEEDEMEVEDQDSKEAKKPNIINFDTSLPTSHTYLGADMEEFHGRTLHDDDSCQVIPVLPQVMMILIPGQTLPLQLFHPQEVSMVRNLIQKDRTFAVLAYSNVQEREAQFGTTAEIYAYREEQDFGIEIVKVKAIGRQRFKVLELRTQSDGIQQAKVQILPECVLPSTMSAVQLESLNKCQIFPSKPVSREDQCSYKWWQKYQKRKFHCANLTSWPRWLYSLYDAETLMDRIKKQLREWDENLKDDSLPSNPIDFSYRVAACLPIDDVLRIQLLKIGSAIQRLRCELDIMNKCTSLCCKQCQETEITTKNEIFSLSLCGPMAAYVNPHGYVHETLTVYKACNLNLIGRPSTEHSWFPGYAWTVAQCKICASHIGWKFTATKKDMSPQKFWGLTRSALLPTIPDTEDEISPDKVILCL
T1 sequence (Q16531 whole entry partner): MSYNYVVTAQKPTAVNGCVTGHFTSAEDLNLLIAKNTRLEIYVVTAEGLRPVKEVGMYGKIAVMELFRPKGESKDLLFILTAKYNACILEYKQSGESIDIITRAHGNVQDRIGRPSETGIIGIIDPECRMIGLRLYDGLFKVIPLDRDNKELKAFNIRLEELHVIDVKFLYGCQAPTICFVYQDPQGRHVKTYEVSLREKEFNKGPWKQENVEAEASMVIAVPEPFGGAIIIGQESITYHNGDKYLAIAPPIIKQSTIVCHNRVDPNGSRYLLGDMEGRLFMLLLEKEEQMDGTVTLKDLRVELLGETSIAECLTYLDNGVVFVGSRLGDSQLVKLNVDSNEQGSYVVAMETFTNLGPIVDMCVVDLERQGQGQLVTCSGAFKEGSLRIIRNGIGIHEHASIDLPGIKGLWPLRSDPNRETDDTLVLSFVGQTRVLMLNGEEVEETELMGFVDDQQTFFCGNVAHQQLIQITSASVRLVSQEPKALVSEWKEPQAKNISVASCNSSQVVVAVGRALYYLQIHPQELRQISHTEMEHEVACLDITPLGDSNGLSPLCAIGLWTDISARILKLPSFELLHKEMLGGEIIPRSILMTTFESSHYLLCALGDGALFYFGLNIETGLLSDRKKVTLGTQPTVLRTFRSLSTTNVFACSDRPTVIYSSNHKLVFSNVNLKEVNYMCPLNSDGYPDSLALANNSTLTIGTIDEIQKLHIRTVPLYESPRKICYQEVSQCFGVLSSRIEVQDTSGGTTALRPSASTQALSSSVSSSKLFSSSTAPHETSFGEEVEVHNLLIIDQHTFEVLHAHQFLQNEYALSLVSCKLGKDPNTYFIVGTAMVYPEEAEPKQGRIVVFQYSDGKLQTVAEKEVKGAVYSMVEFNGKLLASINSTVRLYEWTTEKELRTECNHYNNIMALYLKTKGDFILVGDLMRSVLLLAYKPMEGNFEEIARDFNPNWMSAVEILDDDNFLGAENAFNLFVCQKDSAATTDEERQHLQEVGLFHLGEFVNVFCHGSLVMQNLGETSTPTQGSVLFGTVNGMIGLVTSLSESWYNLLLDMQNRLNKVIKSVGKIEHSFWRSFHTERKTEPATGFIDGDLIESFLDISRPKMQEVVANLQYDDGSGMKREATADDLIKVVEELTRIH

Row | SMILES | Dmax at 25 µM | remaining activity at 25 µM | DC50
1 | O=C1CCN(c2noc3ccc(CN4C[C@H]5C[C@@H]4CN5CC4CCOCC4)cc23)C(=O)N1 [Example 98, 1-(5-(((1R,4R)-5-((tetrahydro-2H-pyran-4-yl)methyl)-2,5-diazabicyclo[2.2.1]heptan-2-yl)methyl)benzo[d]isoxazol-3-yl)dihydropyrimidine-2,4(1H,3H)-dione] | 81% | 19% | 50 nM
2 | CC(C)(C)OC(=O)N1[C@@H]2CC[C@H]1CN(Cc1ccc3onc(N4CCC(=O)NC4=O)c3c1)C2 [Example 99, tert-butyl (1R,5S)-3-((3-(2,4-dioxotetrahydropyrimidin-1(2H)-yl)benzo[d]isoxazol-5-yl)methyl)-3,8-diazabicyclo[3.2.1]octane-8-carboxylate] | 74% | 26% | 450 nM
3 | O=C1CCN(c2noc3ccc(CN4C[C@H]5CC[C@@H](C4)N5)cc23)C(=O)N1 [Example 100, 1-(5-(((1R,5S)-3,8-diazabicyclo[3.2.1]octan-3-yl)methyl)benzo[d]isoxazol-3-yl)dihydropyrimidine-2,4(1H,3H)-dione] | 76% | 24% | 34 nM
4 | CN1[C@@H]2CC[C@H]1CN(Cc1ccc3onc(N4CCC(=O)NC4=O)c3c1)C2 [Example 101, 1-(5-(((1R,5S)-8-methyl-3,8-diazabicyclo[3.2.1]octan-3-yl)methyl)benzo[d]isoxazol-3-yl)dihydropyrimidine-2,4(1H,3H)-dione] | 78% | 22% | 13 nM
5 | O=C1CCN(c2noc3ccc(CN4[C@@H]5CC[C@H]4CNC5)cc23)C(=O)N1 [Example 102, 1-(5-(((1R,5S)-3,8-diazabicyclo[3.2.1]octan-8-yl)methyl)benzo[d]isoxazol-3-yl)dihydropyrimidine-2,4(1H,3H)-dione] | 80% | 20% | 462 nM
6 | CN1C[C@H]2CC[C@@H](C1)N2Cc1ccc2onc(N3CCC(=O)NC3=O)c2c1 [Example 103, 1-(5-(((1R,5S)-3-methyl-3,8-diazabicyclo[3.2.1]octan-8-yl)methyl)benzo[d]isoxazol-3-yl)dihydropyrimidine-2,4(1H,3H)-dione] | 86% | 14% | 68 nM
7 | CS(=O)(=O)N1C[C@H]2CC[C@@H](C1)N2Cc1ccc2onc(N3CCC(=O)NC3=O)c2c1 [Example 104, 1-(5-(((1R,5S)-3-(methylsulfonyl)-3,8-diazabicyclo[3.2.1]octan-8-yl)methyl)benzo[d]isoxazol-3-yl)dihydropyrimidine-2,4(1H,3H)-dione] | 85% | 15% | 181 nM
8 | C[C@H]1CN(S(C)(=O)=O)[C@@H](C)CN1Cc1ccc2onc(N3CCC(=O)NC3=O)c2c1 [Example 105, 1-(5-(((2S,5S)-2,5-dimethyl-4-(methylsulfonyl)piperazin-1-yl)methyl)benzo[d]isoxazol-3-yl)dihydropyrimidine-2,4(1H,3H)-dione] | 75% | 25% | 373 nM
9 | C[C@H]1CN(Cc2ccc3onc(N4CCC(=O)NC4=O)c3c2)[C@@H](C)CN1C [Example 106, 1-(5-(((2S,5S)-2,4,5-trimethylpiperazin-1-yl)methyl)benzo[d]isoxazol-3-yl)dihydropyrimidine-2,4(1H,3H)-dione] | 86% | 14% | 109 nM
10 | C[C@H]1CN(CC2CCOCC2)[C@@H](C)CN1Cc1ccc2onc(N3CCC(=O)NC3=O)c2c1 [Example 107, 1-(5-(((2S,5S)-2,5-dimethyl-4-((tetrahydro-2H-pyran-4-yl)methyl)piperazin-1-yl)methyl)benzo[d]isoxazol-3-yl)dihydropyrimidine-2,4(1H,3H)-dione] | 86% | 14% | 56 nM

Results, then the compound that gave them:

Row | Dmax at 25 µM | remaining activity at 25 µM | DC50 | SMILES
11 | 69% | 31% | 577 nM | C[C@@H]1CN(C)C[C@H](C)N1Cc1ccc2onc(N3CCC(=O)NC3=O)c2c1 [Example 108, 1-(5-(((2R,6S)-2,4,6-trimethylpiperazin-1-yl)methyl)benzo[d]isoxazol-3-yl)dihydropyrimidine-2,4(1H,3H)-dione]
12 | 73% | 27% | 355 nM | C[C@@H]1CN(CC2CCOCC2)C[C@H](C)N1Cc1ccc2onc(N3CCC(=O)NC3=O)c2c1 [Example 109, 1-(5-(((2R,6S)-2,6-dimethyl-4-((tetrahydro-2H-pyran-4-yl)methyl)piperazin-1-yl)methyl)benzo[d]isoxazol-3-yl)dihydropyrimidine-2,4(1H,3H)-dione]
13 | 85% | 15% | 65 nM | O=C1CCN(c2noc3ccc(CN4CCN5CCOC[C@H]5C4)cc23)C(=O)N1 [Example 110, (R)-1-(5-((hexahydropyrazino[2,1-c][1,4]oxazin-8(1H)-yl)methyl)benzo[d]isoxazol-3-yl)dihydropyrimidine-2,4(1H,3H)-dione]
14 | 85% | 15% | 61 nM | O=C1CCN(c2noc3ccc(CN4CCN5CCOC[C@@H]5C4)cc23)C(=O)N1 [Example 111, (S)-1-(5-((hexahydropyrazino[2,1-c][1,4]oxazin-8(1H)-yl)methyl)benzo[d]isoxazol-3-yl)dihydropyrimidine-2,4(1H,3H)-dione]
15 | 87% | 13% | 45 nM | O=C1CCN(c2noc3ccc(CN4CCN5[C@@H](CCS5(=O)=O)C4)cc23)C(=O)N1 [Example 112, (S)-1-(5-((1,1-dioxidohexahydro-5H-isothiazolo[2,3-a]pyrazin-5-yl)methyl)benzo[d]isoxazol-3-yl)dihydropyrimidine-2,4(1H,3H)-dione]
16 | 66% | 34% | 256 nM | CC(C)CN1CCN(Cc2ccc3onc(N4CCC(=O)NC4=O)c3c2)CC1=O [Example 113, 1-(5-((4-isobutyl-3-oxopiperazin-1-yl)methyl)benzo[d]isoxazol-3-yl)dihydropyrimidine-2,4(1H,3H)-dione]
17 | 85% | 15% | 115 nM | COC[C@H]1CN(Cc2ccc3onc(N4CCC(=O)NC4=O)c3c2)CCN1CC(C)C [Example 114, (R)-1-(5-((4-isobutyl-3-(methoxymethyl)piperazin-1-yl)methyl)benzo[d]isoxazol-3-yl)dihydropyrimidine-2,4(1H,3H)-dione]
18 | 78% | 22% | 53 nM | O=C1CCN(c2noc3ccc(CN4CCN(CC5CCOCC5)[C@@H](C(F)F)C4)cc23)C(=O)N1 [Example 115, (R)-1-(5-((3-(difluoromethyl)-4-((tetrahydro-2H-pyran-4-yl)methyl)piperazin-1-yl)methyl)benzo[d]isoxazol-3-yl)dihydropyrimidine-2,4(1H,3H)-dione]
19 | 78% | 22% | 193 nM | O=C1CCN(c2noc3ccc(CN4CCN5C(=O)COC[C@H]5C4)cc23)C(=O)N1 [Example 116, (R)-1-(5-((4-oxohexahydropyrazino[2,1-c][1,4]oxazin-8(1H)-yl)methyl)benzo[d]isoxazol-3-yl)dihydropyrimidine-2,4(1H,3H)-dione]
